Assay results published in article PMC2408617, “Gametogenesis in Malaria Parasites Is Mediated by the cGMP-Dependent Protein Kinase” (PLoS Biology, 2008).
Read-outs that look alike come from different tables or passages of the source.

Legend:
[1] = test system: P. falciparum gametocytes; assay: Gamete emergence from erythrocytes, IFA with anti-Band 3 antibody; type: cell-based, Plasmodium falciparum; settings: pretreatment with BAPTA-AM
Excerpt: Figure 2 Intracellular Ca^2+ Is Not Required for the Initial Step of P. falciparum Gametogenesis To investigate the role of intracellular Ca^2+ in rounding up and exflagellation, stage V Pfrh3^− control gametocytes were pretreated with the BAPTA-AM (BP) before stimulation of gametogenesis with either XA or zaprinast (ZP). (A) (Upper panel) Gametocytes were scored as either round or crescent-shaped, and plotted as percentage rounded-up. […] (Lower panel) The number of centres of exflagellation per 10,000 gametocytes was scored. […] (B) Emergence from host erythrocytes before and after stimulation of gametogenesis with or without BAPTA-AM was scored using IFA with an anti-erythrocyte Band 3 monoclonal antibody. The proportion of cells not reacting with the antibody (indicative of complete emergence) was counted and plotted as a percentage.
For IFA, 3 × 10^6 mature P. falciparum gametocytes were fixed in paraformaldehyde according to a method used for P. berghei. Cells were washed thoroughly and allowed to settle on wells coated with 0.01% poly-L-lysine solution. […] Digital images were recorded using a side-mounted 1K 1.3M pixel High Sensitivity AMT Advantage ER CCD camera system.

[2] = test system: P. falciparum gametocytes; assay: Gametogenesis assay: exflagellation; type: cell-based, Plasmodium falciparum; settings: for inhibition of exflagellation: gametocytes stimulated with XA or zaprinast
Protocol: (§1) P. falciparum gametocytes were produced from the 3D7 clone in human A+ erythrocytes with 10% human serum (National Blood Service), and enriched using Nycodenz (Nycoprep 1.077; Axis-Shield) centrifugation as previously described. For gametogenesis, cells were resuspended at 5 × 10^6 parasites per millilitre and induced with either 20 μM XA or 25–400 μM zaprinast in complete medium, and a reduction (of >5 °C) in temperature. For gametogenesis assays, 10 min post induction, cells were mounted on a wet smear. […] Test reagents including zaprinast, BAPTA-AM, compound 1, and compound 2 were resuspended in DMSO as stock solutions and diluted in complete medium for gametogenesis assays, with the XA stock resuspended in RPMI 1640. The maximum final DMSO concentration in the gametogenesis medium was 0.4%, which was used as a negative control. […] Compound 1 and compound 2 were added at the point of activation with either XA or zaprinast, whereas cells were preincubated with 100 μM BAPTA-AM as previously described. Statistical multivariate analysis was carried out using Poisson regression (Stata 9.2; StataCorp) to compare the effects of genetic background (mutant vs. WT) and experimental replicate (included as categorical data in the analysis) on the rates of rounding up at individual drug concentrations. For each drug concentration, the mutants were tested separately against the WT control, and the resultant output was anti-logged to give the relative risk (and 95% confidence interval) for rounding up with genetic background.

[3] = test system: P. falciparum gametocytes (WT / Pfrh3- control); assay: Gametogenesis assay: rounding up, WT/control gametocytes; type: cell-based, Plasmodium falciparum; settings: for stimulation of rounding up: live gametocytes, zaprinast in absence of XA
Protocol: as §1

[4] = test system: native PDE activity in P. falciparum particulate fractions; assay: PDE assay: cGMP hydrolysis by native parasite particulate fractions; type: biochemical, Plasmodium falciparum; settings: for IC50: cGMP substrate; for effect on native PDE enzyme activity: parasite particulate fractions
Protocol: PDE activity in native parasite fractions was measured using a modification of a previously published method. Parasites were frozen in liquid nitrogen and stored at −80 °C until use. Parasites were resuspended in 500 μl of lysis buffer (20 mM hepes and 250 mM sucrose [pH 7.0]), subjected to five cycles of freeze–thaw in liquid nitrogen and pelleted at 100,000 g for 30 min. Particulate fractions were resuspended in lysis buffer containing EDTA-free protease inhibitors (Roche). PDE assays were carried out in triplicate wells of a 96-well plate in the presence of [^3H]-labelled cGMP (GE Healthcare) for 30 min at 37 °C. Reactions were terminated by boiling the plate for 1 min, followed by a 3-min centrifugation at 900 g. One unit of alkaline phosphatase was added to each well and incubated for 30 min at 37 °C. [^3H]-labelled guanosine was separated from the radiolabelled cGMP substrate using ion exchange (BioRad AG 1 × 8 resin). Supernatants containing the [^3H]-labelled guanosine product were added to scintillation fluid (Optiphase Supermix; Wallac). Scintillation was measured using a Wallac 1450 Microbeta Liquid Scintillation Counter (Perkin Elmer) and PDE activity was expressed in picomoles cGMP/minute/milligram protein. Inhibition assays were carried out in the presence of compounds dissolved in DMSO. PDE assays for specific activity and IC50 determination were carried out at a native lysate dilution that gave 30% cGMP/cAMP hydrolysis.
Supplementary file pbio.0060139.st001.doc: Table S1 The Effect of PDE Inhibitors on Particulate Fractions Isolated from P. falciparum Sexual and Asexual Blood Stage Parasites IC50 values (the concentration of compound that gave 50% inhibition of native PDE activity) are mean ± SEM in micromolar and were calculated using the Prism software package (GraphPad Software). Percentage inhibition data were fitted to a sigmoidal dose-response curve using nonlinear regression. n.d., not determined; >200, sufficient inhibition was not observed for an IC50 calculation. The specific activity of cGMP hydrolysis measured in the individual life cycle stages (at a substrate concentration of 0.82 μM) is listed in the lower row. Specific activity data are mean ± SEM in picomoles cGMP/minute/milligram. (43 KB DOC) Click here for additional data file.

T. gondii = settings: cited from earlier work
Eimeria = settings: cited from earlier work
PfPKGT618Q gametocytes = assay: Gametogenesis assay: rounding up, PfPKGT618Q gametocytes; type: cell-based, Plasmodium falciparum
Protocol: as §1
Supplementary file pbio.0060139.st002.doc: Table S2 Poisson Regression Analysis for Compound 1 Sensitivity of Rounding Up of Both Mutants Compared to WT Each rounding-up measurement was made by counting 200 cells and scoring for rounding up (or not rounding up). At each compound 1 concentration, rounding-up replicate counts for both clones were compared to WT values separately by Poisson regression analysis using the Stata 9.2 package (StataCorp). Where n < 2 (indicated by n.d.), data were excluded from the analysis. Compound 1 concentration (comp1) is shown in micromolar. The p-values from this analysis and the relative risk (RR) of rounding up with genetic background (and 95% confidence intervals [CI]) are shown. (38 KB DOC) Click here for additional data file.

[5] = gametocyte particulate fraction, mean, read-out: IC50, inhibition of native PDE activity, Gametocyte
[6] = schizont particulate fraction, read-out: IC50, inhibition of native PDE activity, Schizont
[7] = ring particulate fraction, read-out: IC50, inhibition of native PDE activity, Ring

CC(=O)OCOC(=O)CN(CC(=O)OCOC(C)=O)c1ccccc1OCCOc1ccccc1N(CC(=O)OCOC(C)=O)CC(=O)OCOC(C)=O [BAPTA-AM]
emergence of gametes from erythrocytes [1]: reduced emergence of gametes from erythrocytes | inhibition of exflagellation [2]: blocked exflagellation | inhibition of rounding up ([3]; control gametocytes stimulated with XA (or zaprinast)): failed to inhibit the rounding up

Cn1c(=O)c2c(ncn2C)n(C)c1=O [Caffeine]
IC50 [4, 5]: > 200 µM | effect on native PDE enzyme activity [4]: little or no effect | IC50 [4, 6]: > 200 µM

OCCN(CCO)c1nc(N2CCCCC2)c2nc(N(CCO)CCO)nc(N3CCCCC3)c2n1 [Dipyridamole]
IC50 [4, 5]: > 200 µM | IC50 [4, 7]: 6.5 µM | IC50 [4, 6]: 7 µM

CCOC(=O)c1cnc2c(cnn2CC)c1NN=C(C)C [Etazolate]
IC50 [4, 7]: 20.7 µM | IC50 [4, 6]: 17.6 µM

CC(C)Cn1c(=O)n(C)c(=O)c2[nH]cnc21 [IBMX]
IC50 [4, 5]: > 200 µM | effect on native PDE enzyme activity [4]: little or no effect | IC50 [4, 7]: > 200 µM | IC50 [4, 6]: > 200 µM

COc1ccc(Cc2nccc3cc(OC)c(OC)cc23)cc1OC [Papaverine]
IC50 [4, 5]: > 200 µM | IC50 [4, 7]: 63.4 µM | IC50 [4, 6]: 173 µM

COc1ccc(C2CNC(=O)C2)cc1OC1CCCC1 (stereo not drawn) [Rolipram]
IC50 [4, 5]: > 200 µM | IC50 [4, 7]: > 200 µM | IC50 [4, 6]: > 200 µM

CCCc1nn(C)c2c(=O)[nH]c(-c3cc(S(=O)(=O)N4CCN(C)CC4)ccc3OCC)nc12 [Sildenafil]
IC50 [4, 5]: 75.6 µM | IC50 [4, 7]: 19.4 µM | IC50 [4, 6]: 22.5 µM

Cn1c(=O)c2[nH]cnc2n(C)c1=O [Theophylline]
IC50 [4, 5]: > 200 µM | effect on native PDE enzyme activity [4]: little or no effect | IC50 [4, 6]: > 200 µM

COc1cc2c(cc1OC)-c1c/c(=N\c3c(C)cc(C)cc3C)n(C)c(=O)n1CC2 [Trequinsin]
IC50 [4, 5]: 193 µM | IC50 [4, 7]: 26.7 µM | IC50 [4, 6]: 126 µM

O=C(O)c1cc(O)c2cccc(O)c2n1 [XA, xanthurenic acid]
stimulation of rounding up [3]: became spherical

CCCOc1ccccc1-c1nc2nn[nH]c2c(=O)[nH]1 [Zaprinast, zaprinast]
stimulation of exflagellation ([2]; in absence of XA): triggered both rounding up and exflagellation in a dose-dependent manner | level of exflagellation induced compared with XA ([2]; zaprinast 400 μM): almost equivalent to those triggered by XA | stimulation of rounding up [3]: stimulated rounding up | level of rounding up induced compared with XA ([3]; zaprinast 400 μM): almost equivalent to those triggered by XA | IC50 [4, 5]: 33.7 ± 1.3 µM | effect on native PDE enzyme activity [4]: effective inhibitor | IC50 [4, 7]: 3.5 µM | IC50 [4, 6]: 3 ± 1.2 µM

CN(C)Cc1ccn2c(-c3ccnc(N)n3)c(-c3ccc(F)cc3)nc2c1 [compound 2, 4-[7-[(dimethylamino)methyl]-2-(4-fluorophenyl)imidazo[1,2-a]pyridine-3-yl]pyrimidin-2-amine]
inhibition of exflagellation [2]: inhibited exflagellation in a dose-dependent manner | difference in sensitivity of exflagellation between control and PfPKGT618Q cell lines ([2]; unpublished data): no significant difference in sensitivity | effect on infection by T. gondii in mice (T. gondii): cure | effect on Eimeria infection in chickens (Eimeria): cure | inhibitory effects on rounding up of PfPKGT618Q gametocytes (PfPKGT618Q gametocytes; 2 μM, stimulation with zaprinast or XA): absence of inhibitory effects | lower sensitivity of PfPKGT618Q gametocytes than control cells (rounding up) (PfPKGT618Q gametocytes; range of inhibitor concentrations, approximately): 10–20 fold
